Measured values: US6602510B1, “HLA class I A2 tumor associated antigen peptides and vaccine compositions” (priority 2000, dated 2003)

Experiments:
[1] = system: patients with recurrent or residual cervical carcinoma; details: cited from earlier work
[2] = system: PBMC from normal donors; format: cell-based, human

Row | Substance | responding patients ([1]; 95% interval 10-65%) [%] | safety ([1]; co-emulsified with HPV-derived CTL epitopes) | antigen concentration at which the 10,000 cpm proliferation level was reached [2]
1 | aKXVAAWTLKAAa-NH2 | 33 | favorable safety profile | 
2 | QYIKANSKFIGITE [Epitope 553.01] |  |  | about 10,000 ng/ml
